Series [1] concerns actions of metenkephalin. Description: Naloxone challenge in reserpine-treated rat model of pre-symptomatic subjects. Format: in vivo, rats. How it is done:
(§1) Reserpine (3 mg/kg, s.c, in 3% glacial acetic acid) was administered to rats to deplete dopamine levels.
(§2) In this situation the animals represent a model of pre-symptomatic subjects, i.e. they have a dopamine depletion but no symptoms.
The parkinsonan symptoms were reversible and were not observed one hour after the naloxone injection where the animals returned to the presymptomatic state.

For series [2], the system named is cynomolgus monkeys. Description: Parkinsonian monkey rating scale after chronic MPTP administration. Format: in vivo, Macaca fascicularis. As to conditions: scale 0-25. Here is the method: (§3) Experiments were conducted on twenty five female cynomolgus monkeys (Macaca fascicularis, Shared Animal Health, Beijing, PR of China; mean age=3.1. ±0.3 years; mean weight=2.8 ±0.2 kg). Animals were housed in individual primate cages under controlled conditions of humidity (50±5%0, temperature (24 ±1° C.), and light (12 h light/dark cycles), food and water were available ad libitum and their care supervised by veterinarians skilled in the healthcare and maintenance of nonhuman primates. Experiments were carried out in accordance with European Economic Community (86/6091/EEC) guidelines for care of laboratory animals. The effect of nontreatment on both motor behaviour and PPE-A expression had been previously compared with that of the administration of saline in order to rule out any possible interference. Accordingly MPTP-treated animals were compared with “nontreated” controls in this study. This procedure has been chosen to minimise the number of animals used. In addition, brain tissues acquired for the present experiments are being used for further experiments.
(§4) Five monkeys were killed at the beginning of the study and were considered as day 0 (D0) controls. The remaining 20 were treated with daily (9:00 am) injections of MPTP hydrochloride (0.2 mg/kg, i.v.; Sigma, St Louis, Mo.) in saline according to a previously described protocol (Bezard et al., 1997 Neuroscience 81 p 399-404; Bezard et al., 1997 Brain Res. 766 p 107-112; and Bezard et al., 1999 Eur. J. Neurosci. 11 p 2167-2170). This protocol derives a reproducible MPTP cumulative dosing regime that leads to the first appearance of parkinsonian clinical signs after 15±1 injections (3.0±0.02 mg/kg). Five presymptomatic monkeys were killed on day 6 (i.e., after 6 injections; D6 Group), five presymptomatic monkeys at day 12 (i.e. after 12 injections; D12 group), five at day 15 after appearance of overt symptoms (i.e. after 15 injections; D15 group), and the remaining five fully parkinsonian monkeys at day 25 (i.e. after 15 injections; D25). All animals were killed by sodium pentobarbital overdose (150 mg/kg, i.v.) and the brains were removed quickly after death. Each brain was bisected along the midline and the two hemispheres were immediately frozen by immersion in isopentane (−45° C.) and then stored at −80° C. […]
(§5) Animal behavior was assessed daily (2 p.m) on a parkinsonian monkey rating scale (Bezard et al., 1997 Neuroscience 81 p399-404; and Bezard et al., 1997 Neuroreport 8 p435-438) using videotape recordings of monkeys in their cages in addition to clinical neurological evaluation. During each session two examiners evaluated the animals' levels of motor performance, coaxing them to perform various tasks by offering appetizing fruit. […]

Series [3] deals with cynomolgus monkeys. As to the kind of experiment: Bradykinesia test (time to pick up three pieces of fruit) after chronic MPTP. Format: in vivo, Macaca fascicularis. As to conditions: maximum 60 s. Here is the method:
as §3, §4, §5

In series [4] the test system is striatal DA content. Description: Neurochemical analysis of striatal DA by HPLC with electrochemical detection. Format: in vivo, Macaca fascicularis. How it is done: (§6) Five monkeys were killed at the beginning of the study and were considered as day 0 (D0) controls. The remaining 20 were treated with daily (9:00 am) injections of MPTP hydrochloride (0.2 mg/kg, i.v.; Sigma, St Louis, Mo.) in saline according to a previously described protocol (Bezard et al., 1997 Neuroscience 81 p 399-404; Bezard et al., 1997 Brain Res. 766 p 107-112; and Bezard et al., 1999 Eur. J. Neurosci. 11 p 2167-2170). This protocol derives a reproducible MPTP cumulative dosing regime that leads to the first appearance of parkinsonian clinical signs after 15±1 injections (3.0±0.02 mg/kg). Five presymptomatic monkeys were killed on day 6 (i.e., after 6 injections; D6 Group), five presymptomatic monkeys at day 12 (i.e. after 12 injections; D12 group), five at day 15 after appearance of overt symptoms (i.e. after 15 injections; D15 group), and the remaining five fully parkinsonian monkeys at day 25 (i.e. after 15 injections; D25). All animals were killed by sodium pentobarbital overdose (150 mg/kg, i.v.) and the brains were removed quickly after death. Each brain was bisected along the midline and the two hemispheres were immediately frozen by immersion in isopentane (−45° C.) and then stored at −80° C. Tissue was sectioned at 20 μm in a cryostat at −17° C., thaw-mounted onto gelatin-subbed slides, dried on a slide warmer and stored at −80° C.
The extent of striatal DA denervation was assessed by measuring levels of DA, 3,4-dihydroxyphenylacetic acid (DOPAC) and homovanillic acid (HVA) in both the caudate nucleus and the putamen using high-pressure liquid chromatography with electrochemical detection as previously described (Bezard et al., 1997 Neuroscience 81 p399-404) with minor modifications. […] Pellets were retained for quantification of protein content by the Bradford assay (Bezard et al., 1997 Neuroscience 81 p 399-404). […] Concentrations of DA and metabolites were calculated using a computing integrator (Gold Nouveau V 1.6, Beckman). Mean and SEM values were calculated for both putamen and caudate nucleus for each group.

The test system of series [5] is PPE-A mRNA. As to the kind of experiment: Preproenkephalin-A in situ hybridization in striatum. In kind it is in vivo, Macaca fascicularis. How it is done:
as §6
In situ hybridization histochemistry was performed as previously described by Henry et al. (1999 Exp. Neurol. 155 p204-220) using a ^35S-radiolabeled oligonucleotide probe (Gibco BRL) corresponding to amino acids 130-145 of the human sequence of PPE-A. One microliter of the oligonucleotide was tailed by the isotope of 37° C. in a mixture containing 10 μl sterile water, 12.5 μl reaction buffer (sodium cocodylate 120 mM and dithiothreitol 100 mM), and 2 μl terminal deoxynucleotide transferase (all reagents DuPont/NEN) with 7 μl of [^35S] ATP (82.5 μCi, NEN). […] One microliter of this solution was counted by a liquid scintillation counter (Tricarb, 1500 Packard) to asses the efficiency of labeling. […]
Densitomeric analysis of autoradiographs was performed using an image analysis system (Image Pro Plus, v3.0.01, Media Cybernetics L.P., Atlanta, Ga.) as previously described (Henry et al., supra). The optical density of the autoradiogram was assessed for the striatum at three rostrocaudal levels in accordance with the functional organisation of the striatum: a rostral level, including the caudate, putamen, and nucleus accumbens; a midlevel, including the caudate, putamen, and GPe; and a caudal level including the body of the caudate, the putamen, and both the GPe and GPi. […] Four sections per animal, per striatal level were analyzed by an examiner blind with regard to experimental condition. […]

The test system of series [6] is dopamine levels. Description: Reserpine-induced dopamine depletion in rats. In kind it is in vivo. The following applies: 3 mg/kg s.c., after 48 hours. Here is the method:
as §1, §2

In series [7] the test system is opioid receptor. Description: Naltrexone challenge in reserpine-treated rats, locomotor activity (Benwick monitors). Format: in vivo, Sprague-Dawley rats. Here is the method:
Reserpine was administered to rats to deplete dopamine levels. […] In this situation the animals represent a model of pre-symptomatic patients, i.e. they have a dopamine depletion but no overt symptoms.
Male Sprague-Dawley rats were split into two groups A and B. Rats in both groups received a subcutaneous administration of reserpine (3 mg/kg). The rats were allowed to recover for 48 hours post reserpine treatment at which point they are considered to represent a model of pre-symptomatic Parkinson's disease.
After the 48 hours Group A were treated with vehicle (water) and group B were treated with naltrexone (10 mg/kg) and placed in locomotor monitoring apparatus (see below).
The locomotion of the rats in Groups A and B following either vehicle or naltrexone treatment was measured over the 5 minute period immediately after drug administration using Benwick locomotor monitors. These locomotion monitors consist of a visually-shielded open-field arena, the perimeter of which is surrounded by a series of infra-red beams arranged at 5 cm intervals. PC-based software (Amlogger) assesses the number of beams broken. The number of beams broken as part of a locomotor movement (activity counts) was measured.

We go through four compounds from patent US20030139438A1, “Diagnosis of the parkinsonian condition” (priority 2001, published 2003).

Turning to `C=CCN1CC[C@]23c4c5ccc(O)c4O[C@H]2C(=O)CC[C@@]3(O)[C@H]1C5` [naloxone], the parkinsonian symptoms result in series [1] (10 mg/kg i.p., rats 48 hours after reserpine 3 mg/kg s.c.) is “parkinsonian symptoms became manifest”. Also, the “parkinsonian symptoms one hour after the injection” value in series [1] (10 mg/kg i.p., reserpine-treated rats) is reported as “not observed”. Also, the “parkinsonian symptoms in control animals not treated with reserpine” value in series [1] (naloxone without reserpine) was “No parkinsonian symtoms were seen”.
As for `CN1CC=C(c2ccccc2)CC1` [MPTP, 1-methyl-4-phenyl-1,2,3,6-tetrahydropyridine], the parkinsonian score was determined as 0 in series [2] (D6 group, 6 daily injections 0.2 mg/kg i.v.) and 0 in series [2] (D12 group, 12 daily injections 0.2 mg/kg i.v.). In addition, the “parkinsonian score, median (range)” value in series [2] (D15 group, 15 injections 0.2 mg/kg i.v.) is reported as 11 (range 10-14); in series [2] (D25 group, killed at day 25 after 15 injections) it was 17 (range 15-19). Besides, the “mean duration of the bradykinesia test” value in series [3] (D6 group, D0 controls 3.0±0.4 s) was determined as 2.4 ± 0.3 s; in series [3] (D12 group, D0 controls 3.0±0.4 s), 2.6 ± 0.5 s; in series [3] (D15 group), 19.9 ± 9.1 s; in series [3] (D25 group, could not perform the test), 60 s. In addition, in series [4] (D6 group), the “reduction of DA level in the putamen compared to D0” value came out at 42.7%. In series [4] (D12 group, asymptomatic), the “depletion of DA in the putamen compared to D0” value is given as 56.3%. Also, the “decrease of DA level in the putamen compared to D0” value in series [4] (D25 group) came to 97.9%. The “PPE-A mRNA levels in striatum compared to D0” value in series [5] (D6 group) is reported as “no significant difference”; in series [5] (D12 group, asymptomatic) it was “sharp increase”; in series [5] (D15 group, mild parkinsonian symptoms), “same distribution of increased levels”; in series [5] (D25 group, fully parkinsonian) it was “pronounced increases”.
On to `COC(=O)[C@H]1[C@H]2C[C@@H]3c4[nH]c5cc(OC)ccc5c4CCN3C[C@H]2C[C@@H](OC(=O)c2cc(OC)c(OC)c(OC)c2)[C@@H]1OC` [Reserpine], for which, in series [6], the dopamine level result is “not less than 20 % of normal levels”.
Consider `O=C1CC[C@@]2(O)[C@H]3Cc4ccc(O)c5c4[C@@]2(CCN3CC2CC2)[C@H]1O5` [naltrexone], for which the parkinsonian symptoms entry in series [7] (10 mg/kg i.p., rats 48 hours after reserpine) is “parkinsonian symptoms appeared”. Further, in series [7] (10 mg/kg, 5 minute period after administration, rats 48 hours after reserpine 3 mg/kg s.c., P<0.01), the “activity counts versus vehicle treated group” value was “significantly less”.
